Source: patent US20220041613A1, “TYROSINE KINASE INHIBITOR COMPOSITIONS, METHODS OF MAKING AND METHODS OF USE” (Black Diamond Therapeutics, Inc., priority 2018, published 2022)
Where two headings read alike, the source gives them in different places.

Columns and labels:
EGFR WT = target: T1, EGFR WT (Homo sapiens, UniProt P00533); experiment: Assay for cell proliferation (CellTiterGlo), Activity for Inhibiting EGFR; format: cell-based; settings: potency code, 3 days drug
T1 construct: endogenous in cells; host or cells: A431 (+H292)
T1 sequence (P00533 25-1210): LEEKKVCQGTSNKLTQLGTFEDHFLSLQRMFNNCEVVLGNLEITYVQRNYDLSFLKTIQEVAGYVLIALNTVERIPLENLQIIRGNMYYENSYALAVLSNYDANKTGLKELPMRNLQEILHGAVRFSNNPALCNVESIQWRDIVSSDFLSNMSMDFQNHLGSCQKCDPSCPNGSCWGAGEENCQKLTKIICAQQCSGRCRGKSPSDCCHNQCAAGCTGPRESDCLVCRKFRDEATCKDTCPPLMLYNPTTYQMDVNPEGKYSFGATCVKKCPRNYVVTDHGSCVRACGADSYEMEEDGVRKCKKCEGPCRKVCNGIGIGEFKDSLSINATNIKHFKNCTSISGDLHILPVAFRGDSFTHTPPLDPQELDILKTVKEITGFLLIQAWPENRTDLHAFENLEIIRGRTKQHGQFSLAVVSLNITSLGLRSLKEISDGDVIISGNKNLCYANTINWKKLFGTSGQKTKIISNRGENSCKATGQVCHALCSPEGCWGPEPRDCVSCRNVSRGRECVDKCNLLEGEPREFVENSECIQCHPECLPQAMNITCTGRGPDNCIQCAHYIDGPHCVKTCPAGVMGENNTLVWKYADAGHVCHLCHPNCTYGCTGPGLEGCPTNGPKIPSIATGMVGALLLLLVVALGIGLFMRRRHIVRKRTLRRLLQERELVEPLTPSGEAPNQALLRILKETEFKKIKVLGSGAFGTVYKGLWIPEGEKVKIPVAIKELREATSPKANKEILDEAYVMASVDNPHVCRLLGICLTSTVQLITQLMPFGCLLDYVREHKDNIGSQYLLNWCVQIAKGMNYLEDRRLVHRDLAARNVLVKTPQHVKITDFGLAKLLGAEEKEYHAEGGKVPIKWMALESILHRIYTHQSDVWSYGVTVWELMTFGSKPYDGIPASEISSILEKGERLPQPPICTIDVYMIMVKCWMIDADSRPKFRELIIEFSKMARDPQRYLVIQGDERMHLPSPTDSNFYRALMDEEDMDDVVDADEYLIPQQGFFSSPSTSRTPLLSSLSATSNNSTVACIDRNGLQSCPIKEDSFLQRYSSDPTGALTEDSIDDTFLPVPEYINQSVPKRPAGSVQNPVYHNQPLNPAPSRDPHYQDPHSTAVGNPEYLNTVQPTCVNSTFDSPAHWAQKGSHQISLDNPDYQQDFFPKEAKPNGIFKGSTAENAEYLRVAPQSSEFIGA

EGFR V3 (EGFR-Viii) = target: T2, EGFR V3 (EGFR-Viii) (Homo sapiens, UniProt P00533, DELINS30-297G); experiment: Assay for cell proliferation (BaF3 transformants, CellTiterGlo), Activity for Inhibiting EGFR; format: cell-based; settings: potency code, 3 days drug
T2 construct: expressed in transfected cells; host or cells: BaF3 (murine pro-B), retroviral pMXs-IRES-Blasticidin, selected for IL-3 independence
Method: (§1) Retroviral Production: EGFR mutants were subcloned into pMXs-IRES-Blasticidin (RTV-016, Cell Biolabs, San Diego, Calif.). Retroviral expression vector retrovirus was produced by transient transfection of HEK 293T cells with the retroviral EGFR mutant expression vector pMXs-IRES-Blasticidin (RTV-016, Cell Biolabs), pCMV-Gag-Pol vector and pCMV-VSV-G-Envelope vector. HEK 293T/17 cells were plated in 100 mm collagen coated plate (354450, Corning Life Sciences, Tewksbury, Mass.) (4×10^5 per plate) and incubated overnight. The next day, retroviral plasmids (3 μg of EGFR mutant, 1.0 μg of pCMV-Gag-Pol and 0.5 μg pCMV-VSV-G) were mixed in 500 μl of Optimem (31985, Life Technologies). The mixture was incubated at room temperature for 5 min and then added to Optimem containing transfection reagent Lipofectamine (11668, Invitrogen) and incubated for 20 minutes. Mixture was then added dropwise to HEK 293T cells. The next day the medium was replaced with fresh culture medium and retrovirus was harvested @ 24 and 48 hrs. Generation of EGFR mutant stable cell lines: BaF3 cells (1.5E5 cells) were infected with 1 ml of viral supernatant supplemented with 8 μg/ml polybrene by centrifuging for 30 min at 1000 rpm. Cells were placed in a 37° C. incubator overnight. Cells were then spun for 5 minutes to pellet the cells. Supernatant was removed and cells re-infected a fresh 1 ml of viral supernatant supplemented with 8 μg/ml polybrene by centrifuging for 30 min at 1000 rpm. Cells were placed in 37° C. incubator overnight. […] After 48 hours cells were selected for retroviral infection in 10 μg/ml Blasticidin for one week. Blasticidin resistant populations were washed twice in phosphate buffered saline before plating in media lacking IL-3 to select for IL-3 independent growth.
as §1, with “fresh 1 m1 of viral” for “fresh 1 ml of viral”

HER2 WT = target: T3, HER2 WT (Homo sapiens, UniProt P04626); experiment: Assay for cell proliferation (CellTiterGlo), Activity for Inhibiting HER2; format: cell-based
T3 construct: endogenous in cells; host or cells: BT474
T3 sequence (P04626 23-1255): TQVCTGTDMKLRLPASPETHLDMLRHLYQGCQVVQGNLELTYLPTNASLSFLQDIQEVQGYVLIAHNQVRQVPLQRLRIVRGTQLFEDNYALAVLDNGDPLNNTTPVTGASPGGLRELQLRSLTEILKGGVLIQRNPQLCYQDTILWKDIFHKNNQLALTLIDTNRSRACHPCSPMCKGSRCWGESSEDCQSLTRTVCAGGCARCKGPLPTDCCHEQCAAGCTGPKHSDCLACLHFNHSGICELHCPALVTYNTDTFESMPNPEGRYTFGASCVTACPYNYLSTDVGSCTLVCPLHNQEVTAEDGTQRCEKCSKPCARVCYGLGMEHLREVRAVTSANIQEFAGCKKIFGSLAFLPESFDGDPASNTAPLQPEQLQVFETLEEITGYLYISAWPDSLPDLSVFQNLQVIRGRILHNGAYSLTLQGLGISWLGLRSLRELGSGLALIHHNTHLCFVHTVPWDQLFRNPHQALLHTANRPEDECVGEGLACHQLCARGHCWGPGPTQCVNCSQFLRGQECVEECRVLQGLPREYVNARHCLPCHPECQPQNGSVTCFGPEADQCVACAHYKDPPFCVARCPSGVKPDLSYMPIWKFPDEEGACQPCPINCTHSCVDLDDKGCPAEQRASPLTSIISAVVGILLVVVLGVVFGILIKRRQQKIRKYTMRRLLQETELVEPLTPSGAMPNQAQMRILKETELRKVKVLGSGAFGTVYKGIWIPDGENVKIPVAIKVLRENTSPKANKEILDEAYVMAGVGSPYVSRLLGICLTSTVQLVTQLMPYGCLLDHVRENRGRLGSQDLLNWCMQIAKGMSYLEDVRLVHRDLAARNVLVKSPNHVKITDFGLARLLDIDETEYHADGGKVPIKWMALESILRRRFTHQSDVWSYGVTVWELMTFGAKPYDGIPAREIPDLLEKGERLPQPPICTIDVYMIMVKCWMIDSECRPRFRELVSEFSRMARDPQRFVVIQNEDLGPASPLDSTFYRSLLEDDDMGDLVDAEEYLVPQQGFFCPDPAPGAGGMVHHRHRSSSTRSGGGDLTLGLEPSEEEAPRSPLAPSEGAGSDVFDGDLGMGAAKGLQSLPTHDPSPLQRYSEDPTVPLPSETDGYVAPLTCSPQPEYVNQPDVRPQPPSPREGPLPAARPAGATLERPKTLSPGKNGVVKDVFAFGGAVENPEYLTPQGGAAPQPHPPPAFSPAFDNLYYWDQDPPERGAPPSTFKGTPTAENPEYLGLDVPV

HER2 S310F = target: T4, HER2 S310F (Homo sapiens, UniProt P04626, S310F); experiment: Assay for cell proliferation (BaF3 transformants, CellTiterGlo), Activity for Inhibiting HER2; format: cell-based; settings: potency code, 3 days drug
T4 construct: expressed in transfected cells; host or cells: BaF3 (murine pro-B) transformants
T4 sequence (P04626 23-1255 S310F): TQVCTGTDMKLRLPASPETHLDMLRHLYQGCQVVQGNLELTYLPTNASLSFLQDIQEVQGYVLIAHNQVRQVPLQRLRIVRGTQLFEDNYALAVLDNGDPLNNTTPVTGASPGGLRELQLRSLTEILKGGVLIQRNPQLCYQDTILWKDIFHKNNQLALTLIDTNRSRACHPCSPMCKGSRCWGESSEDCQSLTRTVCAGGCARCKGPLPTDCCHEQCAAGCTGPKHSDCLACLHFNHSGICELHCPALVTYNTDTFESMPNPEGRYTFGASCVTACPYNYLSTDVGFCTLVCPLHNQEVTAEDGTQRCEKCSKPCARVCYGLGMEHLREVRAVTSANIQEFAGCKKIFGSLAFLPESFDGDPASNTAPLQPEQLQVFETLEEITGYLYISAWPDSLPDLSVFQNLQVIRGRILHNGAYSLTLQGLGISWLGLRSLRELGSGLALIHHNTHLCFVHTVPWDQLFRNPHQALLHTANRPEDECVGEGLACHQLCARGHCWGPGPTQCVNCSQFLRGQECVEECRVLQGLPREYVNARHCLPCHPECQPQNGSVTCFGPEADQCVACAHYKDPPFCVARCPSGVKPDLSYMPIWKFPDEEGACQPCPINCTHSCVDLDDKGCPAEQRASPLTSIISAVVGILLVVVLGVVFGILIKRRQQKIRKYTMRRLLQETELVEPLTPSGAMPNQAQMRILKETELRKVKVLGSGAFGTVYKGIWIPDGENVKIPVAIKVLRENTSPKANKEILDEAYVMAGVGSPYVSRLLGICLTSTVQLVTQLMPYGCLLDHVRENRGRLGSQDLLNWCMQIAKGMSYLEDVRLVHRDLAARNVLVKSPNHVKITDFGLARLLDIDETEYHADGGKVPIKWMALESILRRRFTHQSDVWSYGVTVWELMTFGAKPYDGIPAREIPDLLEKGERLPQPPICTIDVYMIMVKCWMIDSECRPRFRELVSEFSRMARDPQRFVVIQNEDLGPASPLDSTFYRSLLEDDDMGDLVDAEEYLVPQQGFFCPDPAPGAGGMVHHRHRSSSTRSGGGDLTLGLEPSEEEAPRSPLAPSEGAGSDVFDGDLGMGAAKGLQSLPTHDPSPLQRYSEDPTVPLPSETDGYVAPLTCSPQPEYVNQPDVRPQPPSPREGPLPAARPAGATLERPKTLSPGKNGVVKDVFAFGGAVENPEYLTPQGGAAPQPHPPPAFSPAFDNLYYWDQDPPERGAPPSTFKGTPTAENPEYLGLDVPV

[1] = tested on: covalently-activated EGFR variants (EGFR-Viii, EGFR-Vii, EGFR-Vvi, EGFR-A289V); experiment: Western blot under non-reducing conditions: monomeric versus covalently dimerized and phosphorylated EGFR; format: cell-based, Homo sapiens
[2] = tested on: BaF3 cells expressing EGFR-Viii, EGFR-Vii or EGFR-A289V; experiment: Proliferation of BaF3 cells expressing covalently-activated EGFR; format: cell-based, murine
EGFR NPH = target: T5, EGFR NPH (Homo sapiens, UniProt P00533, INS773NPH); experiment: Assay for cell proliferation (BaF3 transformants, CellTiterGlo), Activity for Inhibiting EGFR; format: cell-based; settings: potency code, 3 days drug
T5 construct: expressed in transfected cells; host or cells: BaF3 (murine pro-B), retroviral pMXs-IRES-Blasticidin, selected for IL-3 independence
Method: as §1
as §1, with “fresh 1 m1 of viral” for “fresh 1 ml of viral”

EGFR SVD = target: T6, EGFR SVD (Homo sapiens, UniProt P00533, INS770SVD); experiment: as above; format: cell-based; settings: potency code, 3 days drug
T6 construct: expressed in transfected cells; host or cells: BaF3 (murine pro-B), retroviral pMXs-IRES-Blasticidin, selected for IL-3 independence
T6 sequence (P00533 with tags, fused parts or gaps INS770SVD): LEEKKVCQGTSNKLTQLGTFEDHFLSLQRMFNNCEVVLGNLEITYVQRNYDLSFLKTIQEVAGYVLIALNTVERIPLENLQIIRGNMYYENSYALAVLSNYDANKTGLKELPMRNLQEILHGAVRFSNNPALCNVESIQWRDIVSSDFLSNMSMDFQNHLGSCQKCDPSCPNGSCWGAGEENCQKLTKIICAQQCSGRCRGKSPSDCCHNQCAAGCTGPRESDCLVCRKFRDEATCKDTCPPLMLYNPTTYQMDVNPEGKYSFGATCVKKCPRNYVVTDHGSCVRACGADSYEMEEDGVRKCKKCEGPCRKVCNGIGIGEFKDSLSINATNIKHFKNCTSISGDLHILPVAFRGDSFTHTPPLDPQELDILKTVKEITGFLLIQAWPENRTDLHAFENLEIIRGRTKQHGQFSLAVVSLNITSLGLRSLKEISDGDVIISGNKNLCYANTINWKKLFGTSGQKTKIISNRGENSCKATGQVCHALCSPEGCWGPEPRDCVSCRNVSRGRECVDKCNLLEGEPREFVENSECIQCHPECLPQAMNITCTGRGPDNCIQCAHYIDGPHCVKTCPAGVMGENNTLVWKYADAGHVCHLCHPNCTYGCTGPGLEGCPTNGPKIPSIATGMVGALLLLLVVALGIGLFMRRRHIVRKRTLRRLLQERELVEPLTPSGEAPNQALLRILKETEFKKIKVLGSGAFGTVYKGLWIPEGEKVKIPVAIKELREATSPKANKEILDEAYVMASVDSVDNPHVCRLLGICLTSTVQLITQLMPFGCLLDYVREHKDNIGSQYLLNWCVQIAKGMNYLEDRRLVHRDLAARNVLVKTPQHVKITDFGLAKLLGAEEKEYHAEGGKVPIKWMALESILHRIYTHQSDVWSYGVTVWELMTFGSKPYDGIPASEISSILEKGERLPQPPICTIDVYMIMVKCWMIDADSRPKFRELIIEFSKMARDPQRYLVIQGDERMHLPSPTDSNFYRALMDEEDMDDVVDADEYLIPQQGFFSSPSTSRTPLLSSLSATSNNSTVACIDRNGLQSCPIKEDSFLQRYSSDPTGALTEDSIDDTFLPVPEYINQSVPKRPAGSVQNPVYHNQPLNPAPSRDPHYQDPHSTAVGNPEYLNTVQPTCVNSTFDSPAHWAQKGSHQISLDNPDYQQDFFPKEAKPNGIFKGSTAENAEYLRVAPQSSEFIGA
Method: as §1
as §1, with “fresh 1 m1 of viral” for “fresh 1 ml of viral”

HER2 YVMA = target: T7, HER2 YVMA (Homo sapiens, UniProt P04626, INS775YVMA); experiment: Assay for cell proliferation (BaF3 transformants, CellTiterGlo), Activity for Inhibiting HER2; format: cell-based; settings: potency code, 3 days drug
T7 construct: expressed in transfected cells; host or cells: BaF3 (murine pro-B) transformants

[3] = Table B (Example 2), potency code, 3 days drug, read-out: HER2 WT
[4] = Table B, potency code, 3 days drug, read-out: HER2 WT
[5] = covalent dimers of covalently-activated EGFR variants, cells expressing EGFR-Vii and EGFR-A289V (FIG. 8)
[6] = 'about ... or less', read-out: IC50 value for inhibiting wild-type HER2

Compound | IC50 (EGFR WT; Table A (Example 2)) | IC50 (EGFR WT; Table A) | IC50 (EGFR V3 (EGFR-Viii); Table A (Example 2)) | IC50 (EGFR V3 (EGFR-Viii); Table A) | IC50 (HER2 WT; [3]) | IC50 (HER2 WT; [4]) | IC50 (HER2 S310F; Table B (Example 2)) | IC50 (HER2 S310F; Table B) | IC50 (HER2 WT; [6]) | further results
C=CC(=O)Nc1cc2c(Nc3ccc4c(cnn4Cc4cccc(F)c4)c3)ncnc2cc1N(C)CCN(C)C [compound 1] | 500 to 1000 nM | 500 to 1000 nM | 50 to 100 nM | 50 to 100 nM | 20 to 30 nM | 20 to 30 nM | 100 to 200 nM | 100 to 200 nM | – | –
CCOc1cc2ncc(C#N)c(Nc3ccc(OCc4cccc(F)c4)c(Cl)c3)c2cc1NC(=O)/C=C/CN(C)C [HKI-357] | – | – | – | – | – | – | – | – | – | Induced dimers [1, 5]: No
C=CC(=O)Nc1cc2c(Nc3ccc4c(cnn4Cc4cccc(F)c4)c3)ncnc2cc1OCCCN1CC2CC1CO2 (stereo not drawn) [compound 6] | 100 to 200 nM | 100 to 200 nM | 30 to 50 nM | 30 to 50 nM | < 5 nM | < 5 nM | 10 to 20 nM | 10 to 20 nM | ≤ 6 nM | –
C=CC(=O)Nc1cc2c(Nc3ccc4c(cnn4Cc4cccc(F)c4)c3)ncnc2cc1N(C)CCCN1CCOCC1 [compound 4] | 500 to 1000 nM | 500 to 1000 nM | 30 to 50 nM | 30 to 50 nM | 10 to 20 nM | 10 to 20 nM | 100 to 200 nM | 100 to 200 nM | ≤ 20 nM | –
C=CC(=O)Nc1cc2c(Nc3ccc4c(cnn4Cc4cccc(F)c4)c3)ncnc2cc1N(C)CCCN1CC2CC1CO2 (stereo not drawn) [compound 7] | 300 to 500 nM | 300 to 500 nM | 100 to 200 nM | 100 to 200 nM | 10 to 20 nM | 10 to 20 nM | 100 to 200 nM | 100 to 200 nM | ≤ 20 nM | –
CCOc1cc2ncc(C#N)c(Nc3ccc(F)c(Cl)c3)c2cc1NC(=O)/C=C/CN(C)C [Pelitinib, pelitinib] | – | – | – | – | – | – | – | – | – | Induced dimers [1]: Yes
CN(C)C/C=C/C(=O)Nc1cc2c(Nc3ccc(F)c(Cl)c3)ncnc2cc1C#CC1[C@H]2COC[C@@H]12 (stereo partly drawn) [NT-113] | – | – | – | – | – | – | – | – | – | formation of covalent EGFR dimers ([1]; cells expressing covalently-activated EGFR variants, non-reducing conditions): induces dimerization; proliferation of cells expressing covalently-activated EGFR (paradoxical activation) ([2]; sub-saturating concentrations, up to 72 hours): no evidence for increased cellular proliferation
C=CC(=O)Nc1cc2c(Nc3ccc4c(cnn4Cc4cccc(F)c4)c3)ncnc2cc1OCCN(C)C [compound 10] | 100 to 200 nM | 100 to 200 nM | 20 to 30 nM | 20 to 30 nM | < 5 nM | < 5 nM | 20 to 30 nM | 20 to 30 nM | ≤ 6 nM | IC50 (EGFR NPH; Table A (Example 2)): 30 to 50 nM; IC50 (EGFR NPH; Table A): 30 to 50 nM; IC50 (EGFR SVD; Table A (Example 2)): 30 to 50 nM; IC50 (EGFR SVD; Table A): 30 to 50 nM; IC50 (HER2 YVMA; Table B (Example 2)): 50 to 100 nM; IC50 (HER2 YVMA; Table B): 50 to 100 nM
COc1cc2ncnc(Nc3ccc(F)c(Cl)c3)c2cc1NC(=O)/C=C/CN1CCCCC1 [Dacomitinib, dacomitinib] | – | – | – | – | – | – | – | – | – | Induced dimers [1, 5]: Yes
C=CC(=O)Nc1cc2c(Nc3ccc4c(cnn4Cc4cccc(F)c4)c3)ncnc2cc1C#CC(C)(C)N1CCN(C)CC1 [compound 9] | 300 to 500 nM | 300 to 500 nM | 30 to 50 nM | 30 to 50 nM | 5 to 10 nM | 5 to 10 nM | 10 to 20 nM | 10 to 20 nM | ≤ 10 nM | IC50 (EGFR NPH; Table A (Example 2)): 30 to 50 nM; IC50 (EGFR NPH; Table A): 30 to 50 nM; IC50 (EGFR SVD; Table A (Example 2)): 30 to 50 nM; IC50 (EGFR SVD; Table A): 30 to 50 nM; IC50 (HER2 YVMA; Table B (Example 2)): 50 to 100 nM; IC50 (HER2 YVMA; Table B): 50 to 100 nM
CCOc1cc2ncc(C#N)c(Nc3ccc(OCc4ccccn4)c(Cl)c3)c2cc1NC(=O)/C=C/CN(C)C [Neratinib, neratinib] | – | – | – | – | – | – | – | – | – | proliferation of cells expressing covalently-activated EGFR (paradoxical activation) [2]: devoid of paradoxical activation
C=CC(=O)Nc1ccc2ncnc(Nc3ccc(OCc4cccc(F)c4)c(Cl)c3)c2c1 [AST-1306] | – | – | – | – | – | – | – | – | – | Induced dimers [1, 5]: No
C=CC(=O)Nc1cc2c(Nc3ccc4c(cnn4Cc4cccc(F)c4)c3)ncnc2cc1NCCN1CCOCC1 [compound 5] | 200 to 300 nM | 200 to 300 nM | 100 to 200 nM | 100 to 200 nM | 5 to 10 nM | 5 to 10 nM | 100 to 200 nM | 100 to 200 nM | ≤ 10 nM | –
C=CC(=O)Nc1cccc(Nc2nc(Nc3ccc(N4CCN(C(C)=O)CC4)cc3OC)ncc2C(F)(F)F)c1 [CO-1686] | – | – | – | – | – | – | – | – | – | Induced dimers [1]: Yes
C=CC(=O)Nc1cc2c(Nc3ccc4c(cnn4Cc4cccc(F)c4)c3)ncnc2cc1N(C)CCN1CCOCC1 [compound 2] | > 1000 nM | > 1000 nM | 30 to 50 nM | 30 to 50 nM | 20 to 30 nM | 20 to 30 nM | 100 to 200 nM | 100 to 200 nM | – | –
C=CC(=O)Nc1cc2c(Nc3ccc4c(cnn4Cc4cccc(F)c4)c3)ncnc2cc1OCCN1CCCCC1 [compound 8] | 100 to 200 nM | 100 to 200 nM | 20 to 30 nM | 20 to 30 nM | 5 to 10 nM | 5 to 10 nM | 10 to 20 nM | 10 to 20 nM | ≤ 10 nM | IC50 (EGFR NPH; Table A (Example 2)): 30 to 50 nM; IC50 (EGFR NPH; Table A): 30 to 50 nM; IC50 (EGFR SVD; Table A (Example 2)): 30 to 50 nM; IC50 (EGFR SVD; Table A): 30 to 50 nM; IC50 (HER2 YVMA; Table B (Example 2)): 100 to 200 nM; IC50 (HER2 YVMA; Table B): 100 to 200 nM
